Experimental data taken from patent US4497801A, “New peptides, process for preparation thereof and use thereof” (Fujisawa Pharmaceutical Co., Ltd., priority 1982, dated 1985).
Where a SMILES comes first, the peptide text is derived from it. [ ]: non-standard residue; d: D form. pGlu = O=C1CC[C@@H](C(=O)O)N1

What was measured:
Format in all cases: in vivo, ICR strain mice
Escherichia coli No. 22 [1] = assay: Test 3: protective effect against bacterial infection (i.p. 8, 7, 4, 3 and 2 days before infection); settings: mice observed 4 days
Description: (§1) Test animals: ICR strain mice, males, 4 weeks old, 10 to 20 animals per group.
(§2) Method of bacterial infection: Escherichia coli No. 22, cultured at 37° C. for 20 hours (concentration: 2.0×10^8 cfu/ml), was suspended in sterile physiological saline and the test mice were intraperitoneally inoculated with 0.5 ml of the suspension.
(3) Test 3 (protective effect against bacterial infection)
Test animals: Same as Test 1
(§3) Administration schedule: Each peptide of this invention in predetermined concentrations (aqueous solutions) was intraperitoneally administered 8, 7, 4, 3 and 2 days before infection.
(§4) Method of bacterial infection: Same as Test 1.

Escherichia coli No. 22 [2] = assay: Test 2: protective effect against bacterial infection (i.p. 6, 5, 4 and 1 day before infection); settings: mice observed 4 days
Description: as §1, §2
(2) Test 2 (protective effect against bacterial infection)
(§5) Test animals: Same as Test 1.
Administration schedule: Each peptide of this invention in predetermined concentrations (aqueous solutions) was intraperitoneally administered 6, 5, 4 and 1 day before infection.
as §4

Escherichia coli No. 22 [3] = assay: Test 1: protective effect against bacterial infection (i.p. 7, 6, 3, 2 and 1 day before infection); settings: mice observed 4 days
Description: (1) Test 1 (protective effect against bacterial infection)
as §1
(§6) Administration schedule: The peptides of this invention in predetermined concentrations (aqueous solutions) were intraperitoneally administered 7, 6, 3, 2 and 1 day before infection.
as §2

Escherichia coli No. 22 [4] = assay: Test 5: protective effect against bacterial infection (i.p. 7, 6, 3, 2 and 1 day before infection); settings: mice observed 4 days
Description: (5) Test 5 (protective effect against bacterial infection)
as §1, §6, §2

[5] = system: Herpes simplex virus type 1 Miyama strain; assay: Test 4: protective effect against virus infection; settings: mice observed 14 days
From the text: as §1
(4) Test 4 (protective effect against virus infection)
as §5, §3
(§7) Method of virus infection: Herpes simplex virus type 1 Miyama strain (concentration: 2×10^3 pfu/ml) was suspended in sterile physiological saline and 0.2 ml of the suspension was intraperitoneally inoculated.

[6] = system: Herpes simplex virus type 1 Miyama strain; assay: Test 6: protective effect against virus infection; settings: 0.01 mg/kg i.p. 8, 7, 4, 3 and 2 days before i.p. HSV-1 infection; mice observed 14 days
Description: as §1
(6) Test 6 (protective effect against virus infection)
Test animals: Same as Test 5.
Administration schedule: Each peptide of this invention in aqueous solution was intraperitoneally administered 8, 7, 4, 3 and 2 days before infection (0.01 mg/kg).
as §7

[7] = 0.01 mg/kg i.p. 8, 7, 4, 3 and 2 days before i.p. E. coli infection
[8] = 0.1 mg/kg i.p. 8, 7, 4, 3 and 2 days before i.p. E. coli infection
[9] = 1.0 mg/kg i.p. 8, 7, 4, 3 and 2 days before i.p. E. coli infection
[10] = 1 mg/kg i.p. 6, 5, 4 and 1 day before i.p. E. coli infection
[11] = 0.01 mg/kg i.p. 7, 6, 3, 2 and 1 day before i.p. E. coli infection
[12] = 0.1 mg/kg i.p. 7, 6, 3, 2 and 1 day before i.p. E. coli infection
[13] = 1.0 mg/kg i.p. 7, 6, 3, 2 and 1 day before i.p. E. coli infection

## H-KSKLKKTETQE-OH [Example 9-(2), H-Lys-Ser-Lys-Leu-Lys-Lys-Thr-Glu-Thr-Gln-Glu-OH]
Escherichia coli No. 22 [1]; [7]
  Survival rate (%): 70%
Escherichia coli No. 22 [1]; [8]
  Survival rate (%): 70%
Escherichia coli No. 22 [1]; [9]
  Survival rate (%): 70%

## H-TKEKLKSELVAN-OH [Example 5-(2), H-Thr-Lys-Glu-Lys-Leu-Lys-Ser-Glu-Leu-Val-Ala-Asn-OH]
Escherichia coli No. 22 [2]; [10]
  Survival rate (%): 50%

## H-TKDLKEKKEVVEE-OH [Example 7-(2), H-Thr-Lys-Asp-Leu-Lys-Glu-Lys-Lys-Glu-Val-Val-Glu-Glu-OH]
Escherichia coli No. 22 [3]; [11]
  Survival rate (%): 50%
Escherichia coli No. 22 [3]; [12]
  Survival rate (%): 70%
Escherichia coli No. 22 [3]; [13]
  Survival rate (%): 40%

## H-EKLKSELVAN-OH [Example 4-(2), H-Glu-Lys-Leu-Lys-Ser-Glu-Leu-Val-Ala-Asn-OH]
Escherichia coli No. 22 [2]; [10]
  Survival rate (%): 50%

## pGlu-Lys-Ala-Lys-Ser-Gln-Gly-Gly-Ser-Asn-OH ([pGlu]KAKSQGGSN-OH; SMILES C[C@H](NC(=O)[C@H](CCCCN)NC(=O)[C@@H]1CCC(=O)N1)C(=O)N[C@@H](CCCCN)C(=O)N[C@@H](CO)C(=O)N[C@@H](CCC(N)=O)C(=O)NCC(=O)NCC(=O)N[C@@H](CO)C(=O)N[C@@H](CC(N)=O)C(=O)O) [Example 18-(2)]
Escherichia coli No. 22 [4]; [11]
  Survival rate (%): 60%
Escherichia coli No. 22 [4]; [12]
  Survival rate (%): 70%
Escherichia coli No. 22 [4]; [13]
  Survival rate (%): 80%

## H-SKLKSNSTHQ-OH [Example 1-(2), H-Ser-Lys-Leu-Lys-Ser-Asn-Ser-Thr-His-Gln-OH]
[5]; 0.01 mg/kg i.p. 8, 7, 4, 3 and 2 days before i.p. HSV-1 infection
  Survival rate (%): 80%
[5]; 0.1 mg/kg i.p. 8, 7, 4, 3 and 2 days before i.p. HSV-1 infection
  Survival rate (%): 40%
[5]; 1 mg/kg i.p. 8, 7, 4, 3 and 2 days before i.p. HSV-1 infection
  Survival rate (%): 60%
Escherichia coli No. 22 [2]; 0.1 mg/kg i.p. 6, 5, 4 and 1 day before i.p. E. coli infection
  Survival rate (%): 40%
Escherichia coli No. 22 [2]; [10]
  Survival rate (%): 40%

## H-KETIEQEKQ-OH [Example 12-(2), H-Lys-Glu-Thr-Ile-Glu-Gln-Glu-Lys-Gln-OH]
Escherichia coli No. 22 [1]; [7]
  Survival rate (%): 70%
Escherichia coli No. 22 [1]; [8]
  Survival rate (%): 50%
Escherichia coli No. 22 [1]; [9]
  Survival rate (%): 50%

## C[C@H](NC(=O)[C@@H]1CCC(=O)N1)C(=O)N[C@@H](CCCCN)C(=O)N[C@@H](CCCCN)C(=O)N[C@@H](CCC(N)=O)C(=O)NCC(=O)NCC(=O)N[C@@H](CO)C(=O)N[C@@H](CC(N)=O)C(=O)O [Example 17-(2), pGlu-Ala-Lys-Lys-Gln-Gly-Gly-Ser-Asn-OH] ([pGlu]AKKQGGSN-OH)
[6]
  Survival rate (%): 90%

## H-KFDKSKLKKTETQE-OH [Example 10-(2), H-Lys-Phe-Asp-Lys-Ser-Lys-Leu-Lys-Lys-Thr-Glu-Thr-Gln-Glu-OH]
Escherichia coli No. 22 [1]; [7]
  Survival rate (%): 50%
Escherichia coli No. 22 [1]; [8]
  Survival rate (%): 60%
Escherichia coli No. 22 [1]; [9]
  Survival rate (%): 70%

## H-KLKSE-OH [Example 15-(2), H-Lys-Leu-Lys-Ser-Glu-OH]
Escherichia coli No. 22 [1]; [7]
  Survival rate (%): 80%
Escherichia coli No. 22 [1]; [8]
  Survival rate (%): 100%
Escherichia coli No. 22 [1]; [9]
  Survival rate (%): 80%

## H-EQEKQ-OH [Example 11-(2), H-Glu-Gln-Glu-Lys-Gln-OH]
Escherichia coli No. 22 [1]; [7]
  Survival rate (%): 70%
Escherichia coli No. 22 [1]; [8]
  Survival rate (%): 50%
Escherichia coli No. 22 [1]; [9]
  Survival rate (%): 70%

## H-DLKEKKEVVEE-OH [Example 6-(2), H-Asp-Leu-Lys-Glu-Lys-Lys-Glu-Val-Val-Glu-Glu-OH]
Escherichia coli No. 22 [3]; [11]
  Survival rate (%): 70%
Escherichia coli No. 22 [3]; [12]
  Survival rate (%): 40%
Escherichia coli No. 22 [3]; [13]
  Survival rate (%): 60%

## C[C@H](NC(=O)[C@H](CCCCN)NC(=O)[C@@H]1CCC(=O)N1)C(=O)N[C@@H](CCCCN)C(=O)N[C@@H](CCCCN)C(=O)N[C@@H](CCC(N)=O)C(=O)NCC(=O)NCC(=O)N[C@@H](CO)C(=O)N[C@@H](CC(N)=O)C(=O)O [Example 16-(4), pGlu-Lys-Ala-Lys-Lys-Gln-Gly-Gly-Ser-Asn-OH] ([pGlu]KAKKQGGSN-OH)
[6]
  Survival rate (%): 85%

## H-NVKAKIQDKEG-OH [Example 8-(2), H-Asn-Val-Lys-Ala-Lys-Ile-Gln-Asp-Lys-Glu-Gly-OH]
Escherichia coli No. 22 [1]; [7]
  Survival rate (%): 80%
Escherichia coli No. 22 [1]; [8]
  Survival rate (%): 60%
Escherichia coli No. 22 [1]; [9]
  Survival rate (%): 90%

## H-KEKKE-OH [Example 14-(2), H-Lys-Glu-Lys-Lys-Glu-OH]
Escherichia coli No. 22 [1]; [7]
  Survival rate (%): 50%
Escherichia coli No. 22 [1]; [8]
  Survival rate (%): 50%
Escherichia coli No. 22 [1]; [9]
  Survival rate (%): 70%
